Patent US20040043403A1, “Process for determining the biological activity of epidermal growth factor receptor tyrosine kinase inhibitors” (priority 2000, published 2004)

How the values were obtained:
[1] = tested on: WBC; assay: Real time RT-PCR gene expression in White Blood Cells; format: cell-based, human; settings: 3 μM, 24 h
Procedure: The leucocyte-enriched fraction (buffy coat) is obtained from a healthy donor. 10 ml buffy coat, diluted with 25 ml RPMI 1640 medium is layered on 4 ml Ficoll-Paque (Pharmacia) and centrifuged at 1′200×g for 15 min. The White Blood Cell (WBC) layer at the interface is removed, the cells are washed 2 times with RPMI 1640 medium to remove platelets. WBCs are cultured in RPMI 1640 medium plus 10% Fetal Calf Serum (FCS) in T-150 flask, 100 million cells/100 ml and are incubated for 1 h at 37° C. before treatment. 20 million tissue culture cells (about 80% confluent) or 200 million WBCs are incubated for 2 or 24 h in culture medium containing 3 μM of an EGFR tyrosine kinase inhibitor or 0.03% DMSO. Total RNA from cell pellet is isolated using the RNeasy kit (Qiagen). mRNA is isolated using the oligotex mRNA purification kit (Qiagen). The quality of the obtained mRNA is tested by real time RT-PCR using beta-Actin primers (PE Applied Biosystems) with an amplicon size of 300 base pairs (bp). The total RNA is used as a reference to calculate the amount of mRNA-enrichment in the oligotex purified samples. The primers and probes are designed from mRNA sequences within the coding region or in the 3′ untranslated region (Table 2). For real time RT-PCR, RNA concentrations between 1 and 50 ng/reaction are used to obtain signals between 15-35 cycles. For each RNA preparation RT-PCR reactions are performed with and without reverse transcriptase to check for genomic DNA contamination. In all RNA samples tested, genomic DNA contamination is less than 1%. To normalize for variability in the initial concentration and quality of the total RNA, Glyceraldehyde-3-phosphate dehydrogenase (GAPDH) is used as an endogenous reference in all quantification experiments. For RT-PCR a one step, two-enzyme system is chosen. The TaqMan PCR Core Reagent Kit (PE #N808-0228) plus the reverse transcriptase MuLV (PE Biosystems # N808-0018) and RNase inhibitor (Roche Diagnostics # 799 025) are mixed as described in the manufacturers protocol. Triplicate measurements are done for target and for reference reactions. […] RT-PCR reactions are done with RNA concentrations of 2.5, 5, 10, 20, 40 and 80 ng per reaction. The absolute value of the slope of (log input amount) vs. ΔCT should be <0.1. The ΔCT value is determined by subtracting the average reference CT values from the average target CT values of the three measurements. Relative quantification is performed in triplicates, reference and target, using the RT-PCR protocol described above. […] Expression levels for the three genes, calculated relative to NCI-H520, show big differences between the various cell types (Table 5). […]

[2] = tested on: A431 cells; assay: Real time RT-PCR gene expression in A431 cells; format: cell-based, human
Procedure: 20 million tissue culture cells (about 80% confluent) or 200 million WBCs are incubated for 2 or 24 h in culture medium containing 3 μM of an EGFR tyrosine kinase inhibitor or 0.03% DMSO. Total RNA from cell pellet is isolated using the RNeasy kit (Qiagen). mRNA is isolated using the oligotex mRNA purification kit (Qiagen). The quality of the obtained mRNA is tested by real time RT-PCR using beta-Actin primers (PE Applied Biosystems) with an amplicon size of 300 base pairs (bp). The total RNA is used as a reference to calculate the amount of mRNA-enrichment in the oligotex purified samples. 2 million A431 cells at about 80% confluency are treated with an EGFR tyrosine kinase inhibitor (100, 300 or 3000 nM) or 0.03% DMSO and incubated for 4, 8, 16 or 24 h. Total RNA is isolated using the RNeasy kit. The primers and probes are designed from mRNA sequences within the coding region or in the 3′ untranslated region (Table 2). For real time RT-PCR, RNA concentrations between 1 and 50 ng/reaction are used to obtain signals between 15-35 cycles. For each RNA preparation RT-PCR reactions are performed with and without reverse transcriptase to check for genomic DNA contamination. In all RNA samples tested, genomic DNA contamination is less than 1%. To normalize for variability in the initial concentration and quality of the total RNA, Glyceraldehyde-3-phosphate dehydrogenase (GAPDH) is used as an endogenous reference in all quantification experiments. For RT-PCR a one step, two-enzyme system is chosen. The TaqMan PCR Core Reagent Kit (PE #N808-0228) plus the reverse transcriptase MuLV (PE Biosystems # N808-0018) and RNase inhibitor (Roche Diagnostics # 799 025) are mixed as described in the manufacturers protocol. Triplicate measurements are done for target and for reference reactions. […] RT-PCR reactions are done with RNA concentrations of 2.5, 5, 10, 20, 40 and 80 ng per reaction. The absolute value of the slope of (log input amount) vs. ΔCT should be <0.1. The ΔCT value is determined by subtracting the average reference CT values from the average target CT values of the three measurements. Relative quantification is performed in triplicates, reference and target, using the RT-PCR protocol described above.

[3] = WBC, relative to DMSO-treated NCI-H520 calibrator
[4] = A431, 3 μM, 24 h, relative to DMSO-treated NCI-H520 calibrator
[5] = A431 cells, 3 μM, 24 hours, Experiment 1
[6] = A431 cells, 3 μM, 24 hours, Experiment 2
[7] = A431 cells, 3 μM, 24 hours, Experiment 3

C[C@@H](Nc1ncnc2[nH]c(-c3ccc(O)cc3)cc12)c1ccccc1 [COMPOUND A, (R)-6-(4-hydroxy-phenyl)-4-[(1-phenyl-ethyl)-amino]-7H-pyrrolo[2,3-d]pyrimidine]
Relative Clusterin expression [1, 3]: 2.03 n-fold | Relative TRAIL expression [1, 3]: 22.73 n-fold | Relative VAC-beta expression [1, 3]: 2.16 n-fold | TRAIL repression in WBCs ([1]; WBCs, versus DMSO): 2.5 fold | Relative Clusterin expression [2, 4]: 247.28 n-fold | Relative TRAIL expression [2, 4]: 99.50 n-fold | Relative VAC-beta expression [2, 4]: 57.20 n-fold | Induction of clusterin gene expression, dose and time dependency (FIGS. 1A and 1B) ([2]; A431 cells, 100 nM, 300 nM and 3 μM, 4 to 24 h, real time RT-PCR): shows dose and time dependency | Gene induction, Real time RT-PCR Experiment 1: Acute phase serum amyloid A protein [2, 5]: 6.6 | Gene induction, Real time RT-PCR Experiment 1: Cathepsin H [2, 5]: 5.2 | Gene induction, Real time RT-PCR Experiment 1: Caveolin [2, 5]: 2.8 ± 0.2 | Gene induction, Real time RT-PCR Experiment 1: Complement component 3 (C3) [2, 5]: 5.6 | Gene induction, Real time RT-PCR Experiment 1: Complement cytolysis inibitor (Clusterin) [2, 5]: 11.2 ± 2.0 | Gene induction, Real time RT-PCR Experiment 1: DNA binding protein inhibitor ID-3 [2, 5]: 4.4 | Gene induction, Real time RT-PCR Experiment 1: Extracellular protein S1-5 [2, 5]: 3.2 ± 1.7 | Gene induction, Real time RT-PCR Experiment 1: TGF-beta induced gene [2, 5]: 5.2 | Gene induction, Real time RT-PCR Experiment 1: TRAIL [2, 5]: 7.8 ± 1.6 | Gene induction, Real time RT-PCR Experiment 1: VAC-beta (annexin VIII) [2, 5]: 2.8 ± 1.5 | Gene induction, Real time RT-PCR Experiment 2: Acute phase serum amyloid A protein [2, 6]: 2.5 ± 1.1 | Gene induction, Real time RT-PCR Experiment 2: Cathepsin H [2, 6]: 2.6 ± 0.9 | Gene induction, Real time RT-PCR Experiment 2: Caveolin [2, 6]: 1.5 ± 0.4 | Gene induction, Real time RT-PCR Experiment 2: Complement component 3 (C3) [2, 6]: 2.5 ± 0.4 | Gene induction, Real time RT-PCR Experiment 2: Complement cytolysis inibitor (Clusterin) [2, 6]: 5.2 ± 1.4 | Gene induction, Real time RT-PCR Experiment 2: DNA binding protein inhibitor ID-3 [2, 6]: 2.2 ± 0.1 | Gene induction, Real time RT-PCR Experiment 2: Extracellular protein S1-5 [2, 6]: 1.7 ± 0.2 | Gene induction, Real time RT-PCR Experiment 2: TRAIL [2, 6]: 4.1 ± 1.4 | Gene induction, Real time RT-PCR Experiment 2: VAC-beta (annexin VIII) [2, 6]: 2.4 ± 0.9 | Gene induction, Real time RT-PCR Experiment 3: Acute phase serum amyloid A protein [2, 7]: 3.3 | Gene induction, Real time RT-PCR Experiment 3: Cathepsin H [2, 7]: 2.1 | Gene induction, Real time RT-PCR Experiment 3: Caveolin [2, 7]: 2.6 | Gene induction, Real time RT-PCR Experiment 3: Complement component 3 (C3) [2, 7]: 2.0 | Gene induction, Real time RT-PCR Experiment 3: Complement cytolysis inibitor (Clusterin) [2, 7]: 6.2 | Gene induction, Real time RT-PCR Experiment 3: DNA binding protein inhibitor ID-3 [2, 7]: 2.4 | Gene induction, Real time RT-PCR Experiment 3: Extracellular protein S1-5 [2, 7]: 1.2 ± 0.5 | Gene induction, Real time RT-PCR Experiment 3: TRAIL [2, 7]: 5.7 ± 0.03 | Gene induction, Real time RT-PCR Experiment 3: VAC-beta (annexin VIII) [2, 7]: 2.5 ± 0.8
